Experimental data reported in patent US20140256756A1, “PIPERIDINYL-SUBSTITUTED LACTAMS AS GPR119 MODULATORS” (Array BioPharma Inc., priority 2011, published 2014).

Tested on: modified version of the GPR119 receptor (94% identity to human receptor)
Experiment: cAMP production assay (LANCE cAMP kit, TR-FRET) in HEK-293 cells
Format: cell-based
Conditions: for cAMP production in HEK-293 cells: HEK-293 cells stably expressing modified GPR119, test compounds 0.2 nM to 10 μM, one-hour incubation; for Fold over baseline: increase in cAMP relative to basal levels, agonist activity if 1.5-fold or greater
How it was run: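 Doxycycline-induced HEK-293 cells expressing modified GPR119 exposed to compounds (0.2 nM to 10 μM, 0.5% DMSO) for one hour at ambient temperature in HBSS with HEPES and BSA. cAMP measured by TR-FRET competition and interpolated from a standard curve; agonism defined as ≥1.5-fold over basal.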

Structure (SMILES) | cAMP production in HEK-293 cells [nmol] | Fold over baseline
CS(=O)(=O)c1cc(F)c(N[C@H]2CCN(C3CCN(c4nc(C(F)(F)F)ns4)CC3)C2=O)cc1F [Example 89, (S)-3-(2,5-difluoro-4-(methylsulfonyl)phenylamino)-1-(1-(3-(trifluoromethyl)-1,2,4-thiadiazol-5-yl)piperidin-4-yl)pyrrolidin-2-one] | 15.1 | 3.8
CS(=O)(=O)c1ccc(N[C@H]2CCN(C3CCN(c4nc(C(F)(F)F)ns4)CC3)C2=O)c(F)c1 [Example 90, (S)-3-(2-fluoro-4-(methylsulfonyl)phenylamino)-1-(1-(3-(trifluoromethyl)-1,2,4-thiadiazol-5-yl)piperidin-4-yl)pyrrolidin-2-one] | 8.5 | 2.9
CS(=O)(=O)c1cc(F)c(O[C@H]2CCN(C3CCN(c4nc(C(F)(F)F)ns4)CC3)C2=O)cc1F [Example 91, (S)-3-(2,5-difluoro-4-(methylsulfonyl)phenoxy)-1-(1-(3-(trifluoromethyl)-1,2,4-thiadiazol-5-yl)piperidin-4-yl)pyrrolidin-2-one] | 25.6 | 5.4
CC(C)c1nsc(N2CCC(N3CCC(Cc4ccc(S(C)(=O)=O)cc4)C3=O)CC2)n1 (centres unmarked) [Example 92, 1-(1-(3-isopropyl-1,2,4-thiadiazol-5-yl)piperidin-4-yl)-3-(4-(methylsulfonyl)benzyl)pyrrolidin-2-one] | 18.4 | 2.8
CS(=O)(=O)c1cc(F)c(O[C@H]2CCCN(C3CCN(c4nc(C(F)(F)F)ns4)CC3)C2=O)cc1F [Example 93, (S)-3-(2,5-difluoro-4-(methylsulfonyl)phenoxy)-1′-(3-(trifluoromethyl)-1,2,4-thiadiazol-5-yl)-[1,4′-bipiperidin]-2-one] | 9.0 | 2.9
CC(C)c1nsc(N2CCC(N3CC[C@H](Oc4ccc(S(C)(=O)=O)nc4)C3=O)CC2)n1 [Example 94, (S)-1-(1-(3-isopropyl-1,2,4-thiadiazol-5-yl)piperidin-4-yl)-3-((6-(methylsulfonyl)pyridin-3-yl)oxy)pyrrolidin-2-one] | 28.1 | 4.0
CC(C)(C)n1nnc(N2CCC(N3CC[C@H](Oc4ccc(S(C)(=O)=O)cc4F)C3=O)CC2)n1 [Example 95, (S)-1-(1-(2-(tert-butyl)2H-tetrazol-5-yl)piperidin-4-yl)-3-(2-fluoro-4-(methylsulfonyl)phenoxy)pyrrolidin-2-one] | 16.7 | 3.4
CS(=O)(=O)c1cc(F)c(O[C@H]2CCN(C3CCN(c4nnc(C(F)(F)F)s4)CC3)C2=O)cc1F [Example 96, (S)-3-(2,5-difluoro-4-(methylsulfonyl)phenoxy)-1-(1-(5-(trifluoromethyl)-1,3,4-thiadiazol-2-yl)piperidin-4-yl)pyrrolidin-2-one] | 14.2 | 3.1
CS(=O)(=O)c1cc(F)c(O[C@H]2CCN(C3CCN(c4cnc(C(F)(F)F)o4)CC3)C2=O)cc1F [Example 97, (S)-3-(2,5-difluoro-4-(methylsulfonyl)phenoxy)-1-(1-(2-(trifluoromethyl)oxazol-5-yl)piperidin-4-yl)pyrrolidin-2-one] | 19.0 | 4.1
CS(=O)(=O)c1cc(F)c(O[C@H]2CCN(C3CCN(c4cnc(C(F)(F)F)s4)CC3)C2=O)cc1F [Example 98, (S)-3-(2,5-difluoro-4-(methylsulfonyl)phenoxy)-1-(1-(2-(trifluoromethyl)thiazol-5-yl)piperidin-4-yl)pyrrolidin-2-one] | 23.7 | 5.4
